{"source": "patent US20240268419A1", "about": "“IgA PRODUCTION PROMOTING AGENT AND FEED COMPOSITION FOR PROMOTING IgA PRODUCTION” (Nippon Beet Sugar Manufacturing Co., Ltd., priority 2022, published 2024)", "system": "IgA production in the intestinal tract", "assay": "IgA concentration in feces of suckling calves fed DFAIII (ELISA)", "assay_type": "in vivo, Holstein calves", "conditions": "for IgA Concentration (mg/g feces): mean ± standard deviation", "description": "Twelve head of Holstein calves in suckling period as test subjects were divided into a control group (7 head) and a DFAIII feeding group (5 head). Colostrum was fed to the calves up to 6 days old after birth. In the DFAIII feeding group, 6 g each of difructose anhydride III (DFAIII) (manufactured by Nippon Beet Sugar Manufacturing Co., Ltd.; product name: Koushi no Mikata) was mixed with the colostrum and fed to the calves in the first and second colostrum feeding after birth (at 0 to 1 day old). From 7 days old, the 7 head of calves in suckling period in the control group were fed with a starter, which is a mixed feed for calf in suckling period (manufactured by Nippon Beet Sugar Manufacturing Co., Ltd.; product name: Start; component contents: protein 22%, total digestible nutrients 74%), and the 5 head of calves in suckling period in the DFAIII feeding group were fed with a feed (DFAIII-containing feed) in which DFAIII (manufactured by Nippon Beet Sugar Manufacturing Co., Ltd.) was added in an amount of 2.0 wt % to and mixed with the starter, by free feeding together with hay and water. The amount 2.0 wt % of DFAIII in the DFAIII-containing feed is calculated as the weight proportion (w/w %) of DFAIII relative to the total weight of the starter and DFAIII. From seven days old, 2 L of 15% milk substitute solution (without DFAIII) was further fed to the calves in suckling period twice a day.\nFresh feces were collected from the calves of each test group at 7 days old, 14 days old, 21 days old, and 28 days old. The IgA concentrations in feces were measured by the ELISA method using an IgA ELISA Quantitation Kit (manufactured by BETHYL Laboratories, Inc.). The IgA concentration in feces was expressed in a milligram amount of IgA per wet mass of the feces."}
{"smiles": "OC[C@H]1O[C@@]2(CO[C@]3(CO)O[C@H](CO)[C@@H](O)[C@@H]3O2)[C@@H](O)[C@@H]1O", "note": "[DFAIII, di-D-fructofuranose 1, 2:2,3′ dianhydride]", "values": [{"measurement": "IgA Concentration (mg/g feces)", "setting": "7 days old, Holstein calves in suckling period, 6 g DFAIII in first and second colostrum feeding", "result": "0.65 ± 0.32", "unit": "mg/g feces"}, {"measurement": "IgA Concentration (mg/g feces)", "setting": "14 days old, 6 g DFAIII in colostrum x2, then starter with 2.0 wt % DFAIII from 7 days old, free feeding", "result": "1.19 ± 0.45", "unit": "mg/g feces"}, {"measurement": "IgA Concentration (mg/g feces)", "setting": "21 days old, 6 g DFAIII in colostrum x2, then starter with 2.0 wt % DFAIII from 7 days old, free feeding", "result": "2.60 ± 1.01", "unit": "mg/g feces"}, {"measurement": "IgA Concentration (mg/g feces)", "setting": "28 days old, 6 g DFAIII in colostrum x2, then starter with 2.0 wt % DFAIII from 7 days old, free feeding", "result": "1.01 ± 1.34", "unit": "mg/g feces"}, {"measurement": "IgA concentrations in feces in comparison with the control group", "setting": "DFAIII feeding group vs control group, Holstein calves in suckling period", "result": "statistically significantly higher"}]}
